Results published in the NIST ThermoML archive (doi:10.1021/je100237h).

Conditions: 101.33 kPa, Liquid, Concentric cylinders viscometry

CCOC(=O)CCCCC(=O)OCC [diethyl hexanedioate]
Conditions | viscosity [mPa·s]
283.15 K | 4.57
288.15 K | 3.99
293.15 K | 3.51
298.15 K | 3.12
303.15 K | 2.79
308.15 K | 2.51
313.15 K | 2.28
318.15 K | 2.07
323.15 K | 1.9
328.15 K | 1.75
333.15 K | 1.61
338.15 K | 1.49
343.15 K | 1.39
348.15 K | 1.29
353.15 K | 1.21
358.15 K | 1.13
363.15 K | 1.06
368.15 K | 1
373.15 K | 0.94
